# Reference: US10183915B2, “Axially chiral isomers, and preparation methods therefor and pharmaceutical uses thereof” (MEDSHINE DISCOVERY INC., priority 2015, dated 2019)
# Where two headings read alike, the source gives them in different places.
# How the values were obtained:
# [1] = In vivo pharmacokinetic study in male Sprague-Dawley rats (IV and PO); design: species or system Sprague-Dawley rat; conditions: for MRT inf: read-out: MRT0-inf; for Bioavailability: PO 10 mpk vs IV 2 mpk
# Experimental: Test 6: In Vivo Pharmacokinetic Study of the Test Compounds in Rats
# To study the pharmacokinetic behavior of the compounds in rats and to evaluate their pharmacokinetic characteristics, their concentrations in plasma were determined by LC/MS/MS.
# Appropriate amount of sample was added to a certain amount of pure water, the pH were adjusted to 7-8, to prepare to be 1 mg/mL (filtered and clarified) and 2 mg/mL (with a few particles of suspension) for IV and PO administration. • 2.4 Administration • 18 male SD rats were randomly assigned to 6 treatment groups, 3 rats in each group. Male rats were administrated IV and PO respectively after fasting overnight. The IV dosage was 2 mg/kg, the dose volume was 2 mL/kg, the PO dosage was 10 mg/kg, and the dose volume was 5 mL/kg. 3. Experimental Procedure
# For IV group, 250 μL blood samples were collected before administration, and 0.083, 0.25, 0.5, 1, 2, 4, 8, 24 hours after administration, and placed in K2-EDTA anticoagulant tube, centrifuged at 3000 rpm for 15 minutes, plasma was separated, stored at −80° C. For PO Group, blood samples were collected before administration, and 0.25, 0.5, 1, 2, 4, 8, 24 hours after administration, and the other operations were the same as group IV. The content of the test compounds in the plasma of rats after administration of IV and PO were determined by LC/MS/MS method. The linear range of the assay was 6.00-18000 nM, and the lower limit of quantification was 6 nM; the plasma samples were analyzed by pretreatment with precipitated proteins.
# [2] = Stability of compounds in DMSO solutions (heated; SFC chiral purity); assay type: physicochemical; conditions: for Enantiomer Excess of Compound: DMSO solution
# Experimental: Example 4: Evaluation of the Stability of Compounds in DMSO Solutions
# An appropriate amount of test compound was accurately weighed, added into DMSO to obtain a DMSO solution. The DMSO solution of the compound was stirred in a heated oil bath. At the end of the test, a sample amount of the DMSO solution was diluted with ethanol and the purity and chiral purity of the compound was detected by high performance liquid chromatography (HPLC) or LC-MS (LCMS) and supercritical fluid chromatography (SFC).
# [3] = Stability of solid compounds in ambient temperature (15° C., nitrogen cabinet, dark; SFC chiral purity); assay type: physicochemical; conditions: for Enantiomer Excess of the Compound: solid
# Experimental: Test 2: Evaluation of the Stability of Solid Compounds in Ambient Temperature.
# 20 mg of test compound was placed into 5 mL brown transparent sealed container with stopper and stoned in the nitrogen cabinet (15° C.) in the dark. After the preset storage time, about 2 mg of test compound was accurately weighed, added into ethanol to prepare 1 mg/mL ethanol solution. The purity and chiral purity of the compound was detected by high performance liquid chromatography (HPLC) or LC-MS (LCMS) and supercritical fluid chromatography (SFC).
# [4] = Stability of compounds in SD rat plasma; assay type: in vitro ADME
# Experimental: (§1) Test 5: Evaluation of the Stability of Compounds in Rat Plasma and Human Plasma
# (§2) 2. Experimental Procedures and Methods • 2.1 Prior to the experiment, the frozen plasma stored at −40° C. was thawed at room temperature and incubated in a 37° C. water bath for 5-10 min; centrifuged at 4000 rpm for 5 min, to remove impurities and lipids in the plasma. Measured the value of pH, if required, adjusted it to 7.4±0.1. • 2.2 Prepared 400 μM intermediate solution by diluting 4 μL of the working solution (10 mM) with 96 μL DMSO. • 2.3 Preparation of incubation samples: Remove 3 μL of intermediate solution (400 μM) to mix with 597 μL of blank plasma to achieve 2 μM of final concentration. Incubate each time point samples (0 min, 10 min, 30 min, 60 min, 120 min, in duplicate) at 37° C. in water bath. • 2.4 An aliquot of 100 μL samples of the final spiked plasma for each time point were removed to sample collected plates, added 400 μL of stop solution (200 ng/mL Tolbutamide plus 20 ng/mL Buspirone in 50% ACN/MeOH) to precipitate protein. Mixed thoroughly. • 2.5 Centrifuged each plate at 4,000 rpm for 20 min. Transfered an aliquot of supernatant (100 μL) from each well to sample plate and mixed with 200 μL ultra pure water. Shaked the plate at 800 rpm for about 10 min before submitting to LC-MS/MS analysis. 3. Experimental Data Analysis
# (§3) The ratio of the peak area to the internal standard peak area was used to assess the decrease of the test compound to be measured. The % remaining of the test compound after incubation in plasma was calculated using following equation: % Remaining=100×(PAR at appointed incubation time/PAR at T0 time)
# (§4) wherein PAR is the peak area ratio of analyte versus internal standard (IS)
# (§5) The appointed incubation time points are: 0 min, 10 min, 30 min, 60 min, 120 min; T0: Samples prior to incubation.
# [5] = Stability of compounds in human plasma; assay type: in vitro ADME; conditions: for Recovery (% remaining): human plasma
# Experimental: as §1, §2, §3, §4, §5
# [6] = Stability of compounds in ethanol solutions (heated; SFC chiral purity); assay type: physicochemical; conditions: for Enantiomer Excess of Compound: ethanol solution
# From the text: Test 3: Evaluation of the Stability of Compounds in Ethanol Solutions.
# An appropriate amount of test compound was accurately weighed, added into ethanol to obtain an ethanol solution. The ethanol solution of the compound was stirred in a heated oil bath. At the end of the test, the purity and chiral purity of the compound was detected by high performance liquid chromatography (HPLC) or LC-MS (LCMS) and supercritical fluid chromatography (SFC).
# [7] = male, Sprague-Dawley, rat, plasma, iv, 2 mg/kg, male SD rats, IV 2 mpk
# [8] = male, Sprague-Dawley, rat, plasma, po, 10 mg/kg, male SD rats, PO 10 mpk
# [9] = male SD rats, IV 2 mpk, 2 mg/kg
# [10] = male SD rats, PO 10 mpk, 10 mg/kg
compound,measurement,setting,value
"O=C(O)CSc1nnc(Br)n1-c1ccc(C2CC2)c2ccccc12 (racemic) [(±)-Lesinurad, Lesinurad, reference compound]",clearance,"[1]; Sprague-Dawley, rat, plasma, 2 mg/kg, male SD rats, IV 2 mpk",5.72 ± 1.09 mL/min/kg
same,AUC0-inf,"[1]; Sprague-Dawley, rat, plasma, 2 mg/kg, male SD rats, IV 2 mpk, read-out: AUC0-inf",14.8 ± 3.15 µM·h
same,AUC0-inf,"[1]; Sprague-Dawley, rat, plasma, 10 mg/kg, male SD rats, PO 10 mpk, read-out: AUC0-inf",62.5 ± 12.1 µM·h
same,C0,[1]; [7],11.6 ± 1.98 µM
same,half-life,[1]; [7],1.8 ± 0.65 h
same,MRT inf,[1]; [7],2.21 ± 0.63 h
same,Vd,"[1]; male, Sprague-Dawley, rat, plasma, iv, 2 mg/kg, male SD rats, IV 2 mpk, read-out: Vdss",0.76 ± 0.29 L/kg
same,Cmax,[1]; [8],14.5 ± 8.47 µM
same,half-life,[1]; [8],2.46 ± 0.18 h
same,Bioavailability,"[1]; male, Sprague-Dawley, rat, plasma, po, 10 mg/kg, male SD rats, read-out: Bioavailability",84.3%
same,MRT inf,[1]; [8],4.63 ± 1.16 h
same,Tmax,"[1]; male, Sprague-Dawley, rat, plasma, po, 10 mg/kg, male SD rats, PO 10 mpk, read-out: Tmax",2.33 ± 1.53 h
"O=C(O)CSc1nnc(Br)n1-c1ccc(C2CC2)c2ccccc12 (single isomer, unassigned) [(−)-Lesinurad]",Enantiomer Excess of Compound,"[2]; 80° C., 0 h",96.5%
same,Enantiomer Excess of Compound,"[2]; 80° C., 2 × 24 h",Unchanged
same,Enantiomer Excess of Compound,"[2]; 80° C., 4 × 24 h",Unchanged
same,Enantiomer Excess of Compound,"[2]; 80° C., 2 h",Unchanged
same,Enantiomer Excess of Compound,"[2]; 80° C., 4 h",Unchanged
same,Enantiomer Excess of Compound,"[2]; 80° C., 8 h",Unchanged
same,Enantiomer Excess of Compound,"[2]; 80° C., 24 h",Unchanged
same,Enantiomer Excess of Compound,"[2]; 120° C., 0 h",96.5%
same,Enantiomer Excess of Compound,"[2]; 120° C., 2 × 24 h",Unchanged
same,Enantiomer Excess of Compound,"[2]; 120° C., 4 × 24 h",Unchanged
same,Enantiomer Excess of Compound,"[2]; 120° C., 2 h",Unchanged
same,Enantiomer Excess of Compound,"[2]; 120° C., 4 h",Unchanged
same,Enantiomer Excess of Compound,"[2]; 120° C., 8 h",Unchanged
same,Enantiomer Excess of Compound,"[2]; 120° C., 24 h",Unchanged
same,Enantiomer Excess of Compound,"[2]; 160° C., 0 h",96.5%
same,Enantiomer Excess of Compound,"[2]; 160° C., 8 h",Unchanged
same,Stability in DMSO solutions (SFC purity),"[2]; heating to 80° C., 120° C. and up to 160° C.",very stable
same,Enantiomer Excess of the Compound,[3]; storing time 0 day,96.5%
same,Enantiomer Excess of the Compound,[3]; storing time >80 days,Unchanged
same,Stability of the solid powder (SFC purity),[3]; storing over 80 days,very stable
same,Transformation of the atropisomer in vivo,"[1]; SD rats, IV and PO",no transformation was observed
same,AUC0-inf,[1]; [9],14.419 ± 1.54695 µM·h
same,C0,[1]; [9],9.39 ± 3.21 µM
same,Cl,[1]; [9],5.76 ± 0.59 mL/min/kg
same,MRT0-inf,[1]; [9],2.16 ± 0.07 h
same,T1/2,[1]; [9],1.46 ± 0.03 h
same,Vdss,[1]; [9],0.75 ± 0.10 L/kg
same,Bioavailability,[1]; male SD rats,65.11%
same,AUC0-inf,[1]; [10],46.94391 ± 11.4987 µM·h
same,Cmax,[1]; [10],11 ± 3.99 µM
same,MRT0-inf,[1]; [10],3.92 ± 0.64 h
same,T1/2,[1]; [10],2.17 ± 0.10 h
same,Tmax,[1]; [10],2.33 ± 1.53 h
same,Stability after co-incubation with SD-rat plasma,[4]; 2 hours,very stable
same,"recovery at 0 min, 2 μM","[4]; SD, rat, plasma, pH 7.4, SD rat plasma, 2 μM, 37° C., 0 min, read-out: Recovery (% remaining)",100%
same,"recovery at 10 min, 2 μM","[4]; SD, rat, plasma, pH 7.4, SD rat plasma, 2 μM, 37° C., 10 min, read-out: Recovery (% remaining)",102%
same,"recovery at 30 min, 2 μM","[4]; SD, rat, plasma, pH 7.4, SD rat plasma, 2 μM, 37° C., 30 min, read-out: Recovery (% remaining)",99.9%
same,"recovery at 60 min, 2 μM","[4]; SD, rat, plasma, pH 7.4, SD rat plasma, 2 μM, 37° C., 60 min, read-out: Recovery (% remaining)",97.9%
same,"recovery at 120 min, 2 μM","[4]; SD, rat, plasma, pH 7.4, SD rat plasma, 2 μM, 37° C., 120 min, read-out: Recovery (% remaining)",100%
same,Stability after co-incubation with human plasma,[5]; 2 hours,very stable
same,Recovery (% remaining),"[5]; 2 μM, 37° C., 30 min",100.4%
same,Recovery (% remaining),"[5]; 2 μM, 37° C., 60 min",99.6%
same,"recovery at 120 min, 2 μM","[5]; human, plasma, pH 7.4, human plasma, 2 μM, 37° C., 120 min, read-out: Recovery (% remaining)",101%
same,Enantiomer Excess of Compound,"[6]; 37° C., 4 days",Unchanged
same,Enantiomer Excess of Compound,"[6]; 37° C., 7 days",Unchanged
same,Enantiomer Excess of Compound,[6]; heating time 0 day,96.5%
same,Stability in ethanol solutions (SFC purity),[6]; heating to 37° C. and up to 70° C.,very stable
